Assay results from US20260083704A1, “LXR MODULATORS WITH BICYCLIC CORE MOIETY FOR TREATING DYSLIPIDEMIAS” (OrsoBio, Inc., priority 2022, published 2026).
Read-outs that look alike come from different tables or passages of the source.

How the values were obtained:
[1] = molecular target: T1, GST-LXRβ ligand-binding domain (Homo sapiens, UniProt P55055); experiment: TR-FRETβ activity assay (NCoA3 coactivator peptide recruitment); format: biochemical; conditions: 1 μM 24(S)-25-epoxycholesterol prestimulation
T1 construct: amino acids 156-461; NP009052; made in house; host or cells: E. coli
T1 sequence (P55055 156-460 limits assumed): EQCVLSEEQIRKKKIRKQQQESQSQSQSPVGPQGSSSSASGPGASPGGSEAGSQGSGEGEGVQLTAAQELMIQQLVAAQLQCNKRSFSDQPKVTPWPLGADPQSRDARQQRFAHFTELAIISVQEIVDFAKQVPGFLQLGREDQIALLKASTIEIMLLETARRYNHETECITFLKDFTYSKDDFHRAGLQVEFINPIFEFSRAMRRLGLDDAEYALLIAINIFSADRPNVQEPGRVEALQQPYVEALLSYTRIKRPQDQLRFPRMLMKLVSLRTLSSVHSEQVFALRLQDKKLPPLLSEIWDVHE
Summary of the method: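 E. coli-expressed GST-LXRβ LBD (aa 156-461, 76 nM) with biotinylated NCoA3 peptide (400 nM) in Tris/HCl pH 6.8 containing 1 μM 24(S)-25-epoxycholesterol agonist. Compounds tested at 50 μM down to 0.002 μM in triplicate. TR-FRET (Tb cryptate/XL665, ex 340, em 615/665 nm) read after 1 h at 4° C.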

LXRβ [2] = molecular target: T2, LXRβ (Homo sapiens, UniProt P55055); experiment: LXR Gal4 reporter transient transfection assay (mammalian two-hybrid, HEK293), LXRβ; format: cell-based; conditions: ligand-binding domain (LBD) of LXRβ, HEK293; read-out: LBD-M2H Gal4β
T2 construct: LXRβ (amino acids 156-461); expressed in transfected cells; host or cells: HEK293
T2 sequence (P55055 156-460): T1 sequence (P55055 156-460 limits assumed)
Protocol: LXRα and LXRβ activity status was determined via detection of interaction with coactivator and corepressor proteins in mammalian two-hybrid experiments (M2H). For this, via transient transfection the full length (FL) proteins of LXRα (amino acids 1-447; NP005684; SEQ ID NO:1) or LXRβ-(amino acids 1-461; NP009052; SEQ ID NO:2) or the ligand-binding domains (LBD) of LXRα (amino acids 155-447 SEQ ID NO:3) or LXRβ (amino acids 156-461; SEQ ID NO:4) were expressed from pCMV-AD (Stratagene) as fusions to the transcriptional activation domain of NFkB. As cofactors, domains of either the steroid receptor coactivator 1 (SRC1; amino acids 552-887; SEQ ID NO:5) or of the corepressor NCoR (amino acids 1906-2312; NP006302; SEQ ID NO:6) were expressed as fusions to the DNA binding domain of the yeast transcription factor GAL4 (from pCMV-BD; Stratagene). Interaction was monitored via activation of a coexpressed Firefly Luciferase Reporter gene under control of a promoter containing repetitive GAL4 response elements (vector pFRLuc; Stratagene). Transfection efficiency was controlled via cotransfection of constitutively active pRL-CMV Renilla reniformis luciferase reporter (Promega). HEK293 cells were grown in minimum essential medium (MEM) with 2 mM L-glutamine and Earle's balanced salt solution supplemented with 8.3% fetal bovine serum, 0.1 mM non-essential amino acids, 1 mM sodium pyruvate, at 37° C. in 5% CO2. 3.5×10^4 cells/well were plated in 96-well cell culture plates in growth medium supplemented with 8.3% fetal bovine serum for 16-20 h to ˜90% confluency. For transfection, medium was taken off and LXR and cofactor expressing plasmids as well as the reporter plasmids are added in 30 μL OPTIMEM/well including polyethylene-imine (PEI) as vehicle. Typical amounts of plasmids transfected/well: pCMV-AD-LXR (5 ng), pCMV-BD-cofactor (5 ng), pFR-Luc (100 ng), pRL-CMV (0.5 ng). Compound stocks were prepared in DMSO, prediluted in MEM to a total volume of 120 μL, and added 4 h after addition of the transfection mixture (final vehicle concentration not exceeding 0.2%). Cells were incubated for additional 16 h, lysed for 10 min in 1×Passive Lysis Buffer (Promega) and Firefly and Renilla luciferase activities were measured sequentially in the same cell extract using buffers containing D-luciferine and coelenterazine, respectively. Measurements of luminescence were done in a BMG-luminometer.
The potencies of Compound 21/3 and its analog, Compound pre-6/3, against LXRα and LXRβ were evaluated in biochemical binding assays, cellular mammalian two-hybrid (M2H) interaction assays evaluating nuclear receptor co-repressor (NCOR) recruitment, and cellular reporter assays evaluating transcriptional activity (Table 5).

LXRβ [3] = molecular target: T3, LXRβ (Homo sapiens, UniProt P55055); experiment: as above; format: cell-based; design: LXRβ (amino acids 156-461); expressed in transfected cells; host or cells: HEK293; conditions: full length (FL) LXRβ, HEK293; read-out: FL-M2H Gal4β
T3 sequence (P55055 1-460): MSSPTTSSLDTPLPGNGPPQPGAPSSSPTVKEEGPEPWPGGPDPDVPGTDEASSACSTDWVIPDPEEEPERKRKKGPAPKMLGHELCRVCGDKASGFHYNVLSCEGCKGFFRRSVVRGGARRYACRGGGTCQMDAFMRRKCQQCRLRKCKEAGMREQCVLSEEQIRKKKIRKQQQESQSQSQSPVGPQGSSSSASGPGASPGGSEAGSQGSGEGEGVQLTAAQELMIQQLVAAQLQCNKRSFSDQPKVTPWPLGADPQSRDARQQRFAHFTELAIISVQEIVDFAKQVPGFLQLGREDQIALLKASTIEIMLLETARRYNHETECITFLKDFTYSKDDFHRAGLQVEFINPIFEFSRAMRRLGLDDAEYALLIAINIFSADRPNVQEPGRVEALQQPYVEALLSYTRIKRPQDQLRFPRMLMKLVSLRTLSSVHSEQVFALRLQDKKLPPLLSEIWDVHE
Summary of the method: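 HEK293 cells transiently co-transfected with full-length or LBD LXRα/LXRβ fused to NFkB activation domain, GAL4-DBD-fused SRC1 or NCoR cofactor domain, GAL4-responsive firefly luciferase reporter and Renilla control. Compound added 4 h post-transfection (≤0.2% DMSO), incubated 16 h; firefly and Renilla luminescence read sequentially.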

| Structure (SMILES) | EC50 [1] [µM] | EC50 (LXRβ [2]) [µM] | EC50 (LXRβ [3]) [µM] |
| --- | --- | --- | --- |
| Cc1ccc(S(=O)(=O)n2c(-c3ccsc3)c(-c3ccsc3C#N)c3ccccc32)cc1 [1/23] | 0.1 to 1 | < 0.1 |  |
| Cc1cc(C)c(S(=O)(=O)n2c(-c3cccs3)c(-c3ccsc3C#N)c3ccccc32)c(C)c1 [1/26] | 1 to 10 | < 0.1 |  |
| N#Cc1sccc1-c1c(-c2cccs2)n(S(=O)(=O)c2cccc3ccccc23)c2ccccc12 [1/27] | 1 to 10 | < 0.1 |  |
| Cn1cnc(S(=O)(=O)n2c(-c3cccs3)c(-c3ccsc3C#N)c3ccccc32)c1 [1/28] | 1 to 10 | < 0.1 |  |
| COc1ccc2c(-c3ccsc3C#N)c(-c3cccs3)n(S(=O)(=O)c3ccc(Cl)cc3)c2c1 [1/40] | 1 to 10 | < 0.1 |  |
| N#Cc1sccc1-c1c(-c2ccccc2)n(S(=O)(=O)c2cccnc2)c2ccccc12 [1/41] | 1 to 10 | < 0.1 |  |
| Cc1ncc(S(=O)(=O)n2c(-c3ccccc3)c(-c3ccsc3C#N)c3ccccc32)s1 [1/42] | 1 to 10 | < 0.1 |  |
| N#Cc1sccc1-c1c(-c2cccc(N3CC(C(=O)O)C3)c2)n(S(=O)(=O)c2ccccc2)c2ccc(F)cc12 [3/9] | 1 to 10 | < 0.1 |  |
| Cc1ccc(S(=O)(=O)n2c(-c3ccc(CC(C)(C)C(=O)O)s3)c(-c3ccsc3C#N)c3ccccc32)cc1 [3/16] | 1 to 10 | 0.1 to 1 |  |
| Cc1ccc(S(=O)(=O)n2c(-c3cc(C4CC4C(=O)O)cs3)c(-c3ccsc3C#N)c3ccccc32)cc1 (stereo not shown) [3/17] | 1 to 10 | < 0.1 |  |
| Cc1ccc(S(=O)(=O)n2c(-c3cccc(/C=C/C(=O)O)c3)c(-c3ccsc3C#N)c3ccccc32)cc1 [3/18] | 1 to 10 | < 0.1 |  |
| Cc1ccc(S(=O)(=O)n2c(-c3ccc(/C=C/C(=O)O)s3)c(-c3ccsc3C#N)c3ccccc32)cc1 [3/19] | 1 to 10 | 0.1 to 1 |  |
| Cc1ccc(S(=O)(=O)n2c(-c3cccc(C(C)(C)C(=O)O)c3)c(-c3ccsc3C#N)c3ccccc32)cc1 [3/20] | 1 to 10 | < 0.1 |  |
| N#Cc1sccc1-c1c(-c2cccc(OCC(=O)O)c2)n(S(=O)(=O)c2ccc(Cl)cc2)c2ccccc12 [3/51] | 1 to 10 | 0.1 to 1 |  |
| Cc1ccc(S(=O)(=O)n2c(-c3cccc(-c4cc(F)c(C(=O)O)cc4Cl)c3)c(-c3ccsc3C#N)c3cc(F)ccc32)cc1 [12/2] | 0.1 to 1 |  | < 0.1 |
| Cc1ccc(S(=O)(=O)n2c(-c3cccc(-c4ccc(C(=O)O)c(F)c4Cl)c3)c(-c3ccsc3C#N)c3cc(F)ccc32)cc1 [12/3] | 0.1 to 1 |  | < 0.1 |
| COc1cc(-c2cccc(-c3c(-c4ccsc4C#N)c4cc(F)ccc4n3S(=O)(=O)c3ccc(C)cc3)c2)c(Cl)cc1C(=O)O [12/4] | 0.1 to 1 |  | < 0.1 |
| COc1c(C(=O)O)ccc(-c2cccc(-c3c(-c4ccsc4C#N)c4cc(F)ccc4n3S(=O)(=O)c3ccc(C)cc3)c2)c1Cl [12/5] | < 0.1 |  | < 0.1 |

| Structure (SMILES) | EC50 [1] [µM] | EC50 (LXRβ [2]) [µM] | EC50 (LXRβ [3]) [µM] |
| --- | --- | --- | --- |
| Cc1ccc(S(=O)(=O)n2c(-c3cccc(-c4cc(C(=O)O)n[nH]4)c3)c(-c3ccsc3C#N)c3cc(F)ccc32)cc1 [12/6] | 1 to 10 |  | 1 to 10 |
| Cc1ccc(S(=O)(=O)n2c(-c3cccc(-c4cc(C(=O)O)nn4C)c3)c(-c3ccsc3C#N)c3cc(F)ccc32)cc1 [12/7] | 0.1 to 1 |  | 0.1 to 1 |
| Cc1ccc(S(=O)(=O)n2c(-c3cccc(-c4cc(C(=O)O)nn4C(C)C)c3)c(-c3ccsc3C#N)c3cc(F)ccc32)cc1 [12/8] | 1 to 10 |  | 0.1 to 1 |
| Cc1ccc(S(=O)(=O)n2c(-c3cccc(-c4ccc5c(C(=O)O)n[nH]c5c4)c3)c(-c3ccsc3C#N)c3cc(F)ccc32)cc1 [12/9] | 0.1 to 1 |  | 0.1 to 1 |
| N#Cc1cccc(C#N)c1-c1c(-c2cccc(-c3ccc(S(=O)(=O)O)cc3Cl)c2)n(S(=O)(=O)c2ccc(C(F)F)cc2)c2ccc(F)cc12 [12/10] | < 0.1 |  | < 0.1 |
| COc1ccc(S(=O)(=O)n2c(-c3ccccc3)c(-c3cc4ccccc4nc3C#N)c3ccccc32)cc1 [20/17] |  | 0.1 to 1 |  |
| COc1ccc(S(=O)(=O)n2c(-c3ccccc3)c(-c3c(C#N)sc4ccccc34)c3ccccc32)cc1 [20/18] |  | < 0.1 |  |
| N#Cc1sccc1-c1c(-c2cccc(-c3ccc(C(=O)O)cc3)c2)n(S(=O)(=O)c2ccc3c(c2)CCC3)c2ccc(F)cc12 [23/3] | 0.1 to 1 |  | < 0.1 |
| Cc1ccc(S(=O)(=O)n2c(-c3cccc(-c4cncc(C(C)(C)C(=O)O)c4)c3)c(-c3ccsc3C#N)c3ccccc32)cc1 [30/3] |  | 0.1 to 1 |  |
| CC(C)(O)c1ccc(S(=O)(=O)n2c(-c3cccc(-c4ccc(C(=O)O)cc4Cl)c3)c(-c3ccccc3C#N)c3cc(F)ccc32)cc1 [30/16] | 1 to 10 |  | 0.1 to 1 |
| COC(=O)C(C)(C)N(C)C(=O)C1CN(c2cccc(-c3c(-c4ccsc4C#N)c4cc(F)ccc4n3S(=O)(=O)c3ccc(C)cc3)c2)C1 [32/2] | 0.1 to 1 |  | 0.1 to 1 |
| Cc1ccc(S(=O)(=O)n2c(-c3cccc(-c4ccc(C(=O)NS(C)(=O)=O)cc4Cl)c3)c(-c3ccsc3C#N)c3cc(F)ccc32)cc1 [32/4] | < 0.1 |  | < 0.1 |
| Cc1ccc(S(=O)(=O)n2c(-c3cccc(-c4ccc(C(=O)O)nc4C)c3)c(-c3ccsc3C#N)c3cc(F)ccc32)cc1 [36/1] | 0.1 to 1 |  | < 0.1 |
| Cc1ccc(S(=O)(=O)n2c(-c3cccc(-c4cccc(S(C)(=O)=Nc5nnn[nH]5)c4)c3)c(-c3ccsc3C#N)c3cc(F)ccc32)cc1 (stereo not shown) [37/1] | 0.1 to 1 |  | 0.1 to 1 |
| O=C(O)c1ccc(-c2cccc(-c3c(-c4ccccc4)c4cc(F)ccc4n3S(=O)(=O)c3ccc(C(F)F)cc3)c2)c(Cl)c1 [C11/39] | 0.1 to 1 |  | < 0.1 |
| Cc1ccc(S(=O)(=O)n2c(-c3cccc(-c4ccc(C(C(=O)O)N(C)C)cc4Cl)c3)c(-c3ccsc3C#N)c3cc(F)ccc32)cc1 (stereo not shown) [Compound 3] | < 0.1 |  | < 0.1 |
| Cc1ccc(S(=O)(=O)n2c(-c3cccc(C4CC4C(=O)O)c3)c(-c3ccsc3C#N)c3ncccc32)cc1 (stereo not shown) [Compound 4] | 1 to 10 |  | 0.1 to 1 |
